According to ChEMBL document CHEMBL1201862, “PubChem BioAssay data set” (2004):
Active and inactive are the calls of the source.

Key:
[1] = molecular target: T1, Ubiquitin-conjugating enzyme E2 N (Homo sapiens, UniProt P61088); format: functional;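 further: Dose-response confirmation in a TR-FRET assay detecting UBC13-driven polyubiquitin chain formation, inhibition measured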
T1 sequence (P61088 whole entry): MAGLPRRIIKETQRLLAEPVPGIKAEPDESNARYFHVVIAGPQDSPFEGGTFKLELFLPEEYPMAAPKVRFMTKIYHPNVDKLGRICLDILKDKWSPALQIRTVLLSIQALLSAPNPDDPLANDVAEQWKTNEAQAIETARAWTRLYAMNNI

HEK293 [2] = test: cells; format: functional, cell-based; conditions: Homo sapiens
HEK293 [3] = test: cells; format: functional, cell-based; conditions: Homo sapiens; remark: listed apart in the source
[4] = Trypanosoma cruzi growth suppression in host cells – NIH3T3 host cells, beta-gal luminescence, confirmation (AID 2044); format: functional, cell-based;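 further: intracellular parasites grown in NIH/3T3 mouse fibroblasts as host cells; luminescent beta-galactosidase reporter signal from transgenic T. cruzi replicating inside host cells; inhibitors lower the luminescence signal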
HEK293 [5] = test: inhibition of NOD1-driven NF-kB reporter – cell-based, luminescence, uHTS, primary screen (AID 1578); format: functional; conditions: Homo sapiens
HEK293 [6] = test: NOD2 signaling inhibitors in MDP-stimulated cells, cell-based, uHTS, luminescence (AID 2001); format: functional; conditions: Homo sapiens
[7] = molecular target: Nucleotide-binding oligomerization domain-containing protein 2 (Homo sapiens, UniProt Q9HC29); test: inhibition of NOD2-driven NF-kB reporter – cell-based, luminescence, uHTS, HEK293 (AID 1566); format: functional
[8] = NIH3T3 cell viability loss – ATP luminescence, mouse fibroblasts, counter-screen, dose response (AID 2010); format: functional, cell-based;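 further: cells exposed to compound for about 90 hours before reading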
HEK293 [9] = test: cells; format: functional, cell-based; conditions: Homo sapiens; remark: listed apart in the source
[10] = HIV-1 AD8 envelope cell-cell fusion blockers – cherry-pick, dose response (AID 652062); format: functional, cell-based;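 further: luciferase signal from cell-cell fusion driven by HIV-1 clade B AD8 Env; potency is for inhibitors of fusion seen as a drop in luminescence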
[11] = blockers of HIV-1 ZM109 envelope-driven cell-cell fusion – HeLa effector, CEM target cells, luciferase, cherry-pick, dose response (AID 652058); format: functional, cell-based;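 further: luciferase signal from HIV-1 Env mediated cell-cell fusion of effector and target cells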
[12] = blockers of HIV-1 envelope-mediated cell-cell fusion – cherry-pick, dose response (AID 652057); format: functional, cell-based
[13] = molecular target: Voltage-dependent T-type calcium channel subunit alpha-1H (Homo sapiens, UniProt O95180); format: functional;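 further: channel activity triggered by adding a high calcium stimulation buffer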
[14] = Luminescence Cell-Based Dose Response HTS to Identify Inhibitors of 5'UTR Stem-Loop Driven Prion Protein mRNA Translation in H4 Neuroglioblastoma Cells. [Related pubchem assays: 1827 (Project Summary), 1813 (Primary HTS)]; format: functional
[15] = luciferase reporter signal suppression in cells – H4 neuroglioma cells, luminescence, dose response (AID 1990); format: functional, cell-based
[16] = alpha-synuclein stem-loop luciferase translation blockers – H4 neuroglioma cells, luminescence, confirmation (AID 1988); format: functional, cell-based
[17] = tested on: Streptococcus sp. 'group A'; test: Streptococcus pyogenes SK(-)GAS viability under kanamycin – luminescence, BacTiterGlo, confirmation, counter-screen for streptokinase expression inhibitor project, dose response (AID 1900); format: functional, organism-based
[18] = loss of viability in HepG2 cells – cell-based, CellTiter-Glo, cherry-picked, cytotoxicity control for Shn3 inhibitor project, dose response (AID 624134); format: functional
[19] = molecular target: Heat shock protein HSP 90-alpha (Homo sapiens, UniProt P07900); format: functional, organism-based
Streptococcus = test: GAS UMAA2166 growth inhibition – luminescence, BacTiterGlo, counter-screen for streptokinase expression inhibitor project, dose response (AID 1915); format: functional, organism-based;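 further: potency for reduction of bacterial viability or growth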
[20] = reduction of Shn3 3'UTR-driven luciferase in osteoblasts – cell-based, Clone20 osteoblasts, firefly luciferase, cherry-picked, dose response (AID 624132); format: functional;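 further: firefly luciferase luminescence from reporter carrying the Shn3 3'UTR in osteoblasts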
Nonstructural protein 1 = Nonstructural protein 1 (Influenza A virus, UniProt Q194T2); format: functional, Influenza A virus (A/California/07/2009(H1N1))
[21] = non-specific 3'UTR reporter inhibition in Clone20-Shn3RL – cell-based, Renilla luciferase, cherry-picked, counter-screen for Shn3 inhibitor project, dose response (AID 624133); format: functional
INS1 = test: INS-1E survival protection against cytokine death – cell-based, luminescence, retest, dose response (AID 449756); format: functional; conditions: Rattus norvegicus;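 further: cell death triggered by IL-1 beta plus TNF-alpha plus IFN-gamma mixture; protective hits raise ATP signal compared with cytokine alone wells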
Estrogen receptor beta [22] = molecular target: T2, Estrogen receptor beta (Homo sapiens, UniProt Q92731); test: blockers of SRC-3 recruitment to ERβ – biochemical, ELISA, streptavidin-HRP readout, orthogonal assay, confirmation (AID 1060)
Estrogen receptor beta [23] = molecular target: T2, Estrogen receptor beta
[24] = molecular target: Glucose-6-phosphate 1-dehydrogenase (Homo sapiens, UniProt P11413); test: inhibition of Homo sapiens G6PD, dose series – biochemical, fluorescence, selectivity assay for P. falciparum G6PD inhibitor project, dose response (AID 504792); format: functional
Streptokinase A = molecular target: T3, Streptokinase A (Streptococcus pyogenes serotype M1, UniProt P10520); test: viability-normalized secreted streptokinase activity reduction – plasminogen activation absorbance, OD405, dose response (AID 1914); format: functional, Streptococcus pyogenes M1 GAS;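 further: secreted streptokinase activity via plasminogen activation per viability signal from cell pellet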
T3 sequence (P10520 whole entry): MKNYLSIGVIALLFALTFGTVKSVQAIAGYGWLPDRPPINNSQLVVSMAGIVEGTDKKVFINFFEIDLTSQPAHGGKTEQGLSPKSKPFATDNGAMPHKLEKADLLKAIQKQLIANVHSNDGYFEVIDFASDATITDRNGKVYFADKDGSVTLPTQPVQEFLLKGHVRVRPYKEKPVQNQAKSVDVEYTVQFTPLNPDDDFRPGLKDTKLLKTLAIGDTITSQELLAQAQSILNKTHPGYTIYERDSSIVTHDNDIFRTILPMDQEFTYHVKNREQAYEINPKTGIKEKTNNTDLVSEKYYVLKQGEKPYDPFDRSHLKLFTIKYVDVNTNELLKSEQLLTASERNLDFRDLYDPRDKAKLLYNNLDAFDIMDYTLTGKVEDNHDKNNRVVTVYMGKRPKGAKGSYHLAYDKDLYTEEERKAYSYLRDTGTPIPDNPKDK

X-box-binding protein 1 = molecular target: T4, X-box-binding protein 1 (Homo sapiens, UniProt P17861); format: functional, Cricetulus griseus;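 further: confirmatory dose-response counter-screen serving a CHOP assay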
T4 sequence (P17861 whole entry): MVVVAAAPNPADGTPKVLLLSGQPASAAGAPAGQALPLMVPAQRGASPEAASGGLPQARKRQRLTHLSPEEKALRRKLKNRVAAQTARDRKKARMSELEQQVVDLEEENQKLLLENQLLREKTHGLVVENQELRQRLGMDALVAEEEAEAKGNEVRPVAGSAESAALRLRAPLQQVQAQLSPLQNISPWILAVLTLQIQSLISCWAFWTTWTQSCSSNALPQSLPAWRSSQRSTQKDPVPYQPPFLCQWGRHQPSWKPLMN

[25] = molecular target: T5, Heat shock factor protein 1 (Mus musculus, UniProt P38532); test: enhancement of HSF1-driven luciferase signal – cell-based, NIH3T3, luminescence, dose retest, confirmation (AID 435004); format: functional;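 further: stress induced by proteasome inhibitor MG132 added 30 min after compound; luciferase reporter driven by HSF1 response element in NIH3T3 cells; actives raise luminescence as potentiators of the MG132 stress response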
T5 sequence (P38532 whole entry): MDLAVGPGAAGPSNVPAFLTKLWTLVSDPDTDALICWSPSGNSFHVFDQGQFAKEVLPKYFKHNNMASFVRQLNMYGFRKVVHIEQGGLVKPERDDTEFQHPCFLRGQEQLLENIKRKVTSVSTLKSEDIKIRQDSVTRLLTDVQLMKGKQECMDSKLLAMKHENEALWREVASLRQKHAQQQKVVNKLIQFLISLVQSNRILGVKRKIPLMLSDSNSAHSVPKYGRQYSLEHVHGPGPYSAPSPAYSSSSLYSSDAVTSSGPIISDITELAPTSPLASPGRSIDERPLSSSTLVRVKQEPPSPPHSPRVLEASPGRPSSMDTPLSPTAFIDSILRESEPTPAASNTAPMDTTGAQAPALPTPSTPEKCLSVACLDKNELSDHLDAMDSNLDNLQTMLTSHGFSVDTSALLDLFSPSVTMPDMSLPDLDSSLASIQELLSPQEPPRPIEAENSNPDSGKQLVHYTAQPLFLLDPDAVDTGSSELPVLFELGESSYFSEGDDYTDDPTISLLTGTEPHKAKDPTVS

Nucleotide-binding oligomerization domain-containing protein 2, sequence (Q9HC29 whole entry, the tested form may be a part): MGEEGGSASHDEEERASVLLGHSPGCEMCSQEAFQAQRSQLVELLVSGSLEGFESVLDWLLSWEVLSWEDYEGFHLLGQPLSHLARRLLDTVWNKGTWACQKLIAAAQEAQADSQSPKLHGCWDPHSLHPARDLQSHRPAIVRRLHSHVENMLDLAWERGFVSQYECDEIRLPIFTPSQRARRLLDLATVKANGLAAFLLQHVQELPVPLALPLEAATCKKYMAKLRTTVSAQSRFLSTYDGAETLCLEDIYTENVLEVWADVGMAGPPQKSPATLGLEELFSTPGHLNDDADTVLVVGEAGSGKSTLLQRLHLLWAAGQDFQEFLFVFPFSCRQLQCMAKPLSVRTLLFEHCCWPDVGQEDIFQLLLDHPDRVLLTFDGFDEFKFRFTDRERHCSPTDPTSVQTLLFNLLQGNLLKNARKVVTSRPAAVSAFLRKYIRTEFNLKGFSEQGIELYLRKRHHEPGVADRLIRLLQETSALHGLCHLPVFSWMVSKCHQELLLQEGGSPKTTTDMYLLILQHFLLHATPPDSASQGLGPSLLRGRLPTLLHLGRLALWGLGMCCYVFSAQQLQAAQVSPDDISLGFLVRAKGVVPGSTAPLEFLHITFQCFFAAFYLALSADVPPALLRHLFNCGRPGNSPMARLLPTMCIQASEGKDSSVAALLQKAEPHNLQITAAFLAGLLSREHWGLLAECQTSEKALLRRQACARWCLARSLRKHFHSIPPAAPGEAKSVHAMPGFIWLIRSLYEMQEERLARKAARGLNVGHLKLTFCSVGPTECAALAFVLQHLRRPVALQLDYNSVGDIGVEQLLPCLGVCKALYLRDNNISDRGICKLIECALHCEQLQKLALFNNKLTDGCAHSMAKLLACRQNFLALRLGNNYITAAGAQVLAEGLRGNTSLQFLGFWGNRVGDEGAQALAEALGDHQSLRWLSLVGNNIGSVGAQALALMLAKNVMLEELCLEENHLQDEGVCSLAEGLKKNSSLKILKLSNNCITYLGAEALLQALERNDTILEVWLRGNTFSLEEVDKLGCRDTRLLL
T2 sequence (Q92731 whole entry): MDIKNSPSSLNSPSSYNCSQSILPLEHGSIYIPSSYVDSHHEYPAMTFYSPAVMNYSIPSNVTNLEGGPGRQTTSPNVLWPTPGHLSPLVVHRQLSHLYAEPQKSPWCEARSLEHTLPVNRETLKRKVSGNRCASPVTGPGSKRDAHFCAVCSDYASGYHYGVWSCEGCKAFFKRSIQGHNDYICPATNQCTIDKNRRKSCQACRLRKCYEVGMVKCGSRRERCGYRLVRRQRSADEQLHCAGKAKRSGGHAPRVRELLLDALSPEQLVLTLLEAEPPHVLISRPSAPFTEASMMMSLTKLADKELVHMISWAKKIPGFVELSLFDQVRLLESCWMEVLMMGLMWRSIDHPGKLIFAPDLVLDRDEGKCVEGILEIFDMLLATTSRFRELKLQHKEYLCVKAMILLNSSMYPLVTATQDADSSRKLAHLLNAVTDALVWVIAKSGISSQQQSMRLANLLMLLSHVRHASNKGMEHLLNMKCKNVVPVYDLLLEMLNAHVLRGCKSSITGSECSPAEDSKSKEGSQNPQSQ
Voltage-dependent T-type calcium channel subunit alpha-1H, sequence (O95180 whole entry): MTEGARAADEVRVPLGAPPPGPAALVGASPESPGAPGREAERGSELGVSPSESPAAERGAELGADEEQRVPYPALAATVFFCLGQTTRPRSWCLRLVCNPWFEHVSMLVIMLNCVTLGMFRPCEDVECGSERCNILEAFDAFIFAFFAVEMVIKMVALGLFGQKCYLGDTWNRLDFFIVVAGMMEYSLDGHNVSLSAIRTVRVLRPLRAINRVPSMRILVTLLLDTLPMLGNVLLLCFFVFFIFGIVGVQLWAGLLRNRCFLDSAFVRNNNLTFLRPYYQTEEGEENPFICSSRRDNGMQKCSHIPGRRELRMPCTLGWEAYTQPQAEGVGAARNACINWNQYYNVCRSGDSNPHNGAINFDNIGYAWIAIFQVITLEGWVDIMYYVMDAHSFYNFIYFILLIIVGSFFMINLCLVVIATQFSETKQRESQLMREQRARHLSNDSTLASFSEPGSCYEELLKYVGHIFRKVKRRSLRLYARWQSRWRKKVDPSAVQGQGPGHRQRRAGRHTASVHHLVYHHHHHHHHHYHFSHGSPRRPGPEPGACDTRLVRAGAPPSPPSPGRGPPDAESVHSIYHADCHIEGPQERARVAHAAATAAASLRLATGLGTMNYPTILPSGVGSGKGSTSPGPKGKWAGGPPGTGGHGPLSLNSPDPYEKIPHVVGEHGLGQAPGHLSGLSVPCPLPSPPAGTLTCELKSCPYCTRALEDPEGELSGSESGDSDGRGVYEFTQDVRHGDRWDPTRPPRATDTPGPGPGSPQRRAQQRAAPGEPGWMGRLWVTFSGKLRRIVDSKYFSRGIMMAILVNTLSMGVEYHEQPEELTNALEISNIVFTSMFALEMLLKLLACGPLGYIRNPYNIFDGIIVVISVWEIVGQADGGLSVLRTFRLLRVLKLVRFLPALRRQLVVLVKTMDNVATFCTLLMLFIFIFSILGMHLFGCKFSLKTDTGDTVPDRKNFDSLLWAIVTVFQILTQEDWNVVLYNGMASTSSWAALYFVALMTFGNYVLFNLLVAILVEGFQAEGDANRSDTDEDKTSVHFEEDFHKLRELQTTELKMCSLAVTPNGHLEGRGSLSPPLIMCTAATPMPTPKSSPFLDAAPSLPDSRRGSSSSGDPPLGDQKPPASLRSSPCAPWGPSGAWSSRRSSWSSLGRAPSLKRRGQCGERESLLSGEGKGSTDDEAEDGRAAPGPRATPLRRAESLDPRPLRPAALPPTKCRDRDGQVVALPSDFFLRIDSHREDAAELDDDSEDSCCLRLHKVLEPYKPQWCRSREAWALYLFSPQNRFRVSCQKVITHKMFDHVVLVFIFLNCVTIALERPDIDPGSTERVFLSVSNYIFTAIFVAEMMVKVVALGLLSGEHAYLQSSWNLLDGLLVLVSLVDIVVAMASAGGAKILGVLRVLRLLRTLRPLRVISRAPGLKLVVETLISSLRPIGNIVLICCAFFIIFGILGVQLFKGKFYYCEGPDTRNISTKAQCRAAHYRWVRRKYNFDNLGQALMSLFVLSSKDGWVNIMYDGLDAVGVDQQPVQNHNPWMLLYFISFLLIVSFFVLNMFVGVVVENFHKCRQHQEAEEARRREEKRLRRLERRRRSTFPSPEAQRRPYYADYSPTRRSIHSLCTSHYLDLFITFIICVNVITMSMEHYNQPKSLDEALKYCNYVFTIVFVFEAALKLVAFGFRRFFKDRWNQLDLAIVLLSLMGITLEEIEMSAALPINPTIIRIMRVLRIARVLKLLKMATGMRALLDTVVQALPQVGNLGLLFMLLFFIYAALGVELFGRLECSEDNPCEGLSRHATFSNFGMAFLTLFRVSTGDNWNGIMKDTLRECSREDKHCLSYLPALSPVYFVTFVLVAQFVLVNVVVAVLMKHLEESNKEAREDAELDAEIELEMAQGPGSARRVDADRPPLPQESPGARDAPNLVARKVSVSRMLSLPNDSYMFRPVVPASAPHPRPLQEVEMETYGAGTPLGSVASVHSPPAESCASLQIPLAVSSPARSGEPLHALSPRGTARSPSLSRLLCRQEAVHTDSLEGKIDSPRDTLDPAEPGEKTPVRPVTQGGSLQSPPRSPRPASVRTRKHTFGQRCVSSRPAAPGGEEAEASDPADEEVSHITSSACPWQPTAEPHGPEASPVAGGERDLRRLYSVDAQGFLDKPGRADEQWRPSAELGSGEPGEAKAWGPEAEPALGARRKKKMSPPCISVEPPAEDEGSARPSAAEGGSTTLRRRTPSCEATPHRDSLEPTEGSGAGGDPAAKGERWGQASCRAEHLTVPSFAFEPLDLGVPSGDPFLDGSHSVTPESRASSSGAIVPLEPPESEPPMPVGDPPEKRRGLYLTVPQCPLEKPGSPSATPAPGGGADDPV
Glucose-6-phosphate 1-dehydrogenase, sequence (P11413 whole entry): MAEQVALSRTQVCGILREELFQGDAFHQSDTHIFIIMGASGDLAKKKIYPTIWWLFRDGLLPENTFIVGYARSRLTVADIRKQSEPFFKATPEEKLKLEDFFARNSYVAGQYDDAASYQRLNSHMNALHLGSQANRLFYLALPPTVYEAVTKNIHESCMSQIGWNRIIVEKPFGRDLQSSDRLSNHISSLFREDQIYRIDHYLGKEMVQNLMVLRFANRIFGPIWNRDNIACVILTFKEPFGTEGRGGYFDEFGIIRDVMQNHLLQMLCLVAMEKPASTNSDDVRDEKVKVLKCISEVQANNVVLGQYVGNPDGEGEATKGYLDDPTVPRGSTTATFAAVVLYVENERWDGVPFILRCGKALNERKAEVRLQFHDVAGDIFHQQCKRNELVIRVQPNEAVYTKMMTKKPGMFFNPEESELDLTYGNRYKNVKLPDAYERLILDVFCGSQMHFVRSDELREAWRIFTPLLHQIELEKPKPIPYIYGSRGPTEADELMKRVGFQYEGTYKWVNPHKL
Nonstructural protein 1, sequence (Q194T2 whole entry): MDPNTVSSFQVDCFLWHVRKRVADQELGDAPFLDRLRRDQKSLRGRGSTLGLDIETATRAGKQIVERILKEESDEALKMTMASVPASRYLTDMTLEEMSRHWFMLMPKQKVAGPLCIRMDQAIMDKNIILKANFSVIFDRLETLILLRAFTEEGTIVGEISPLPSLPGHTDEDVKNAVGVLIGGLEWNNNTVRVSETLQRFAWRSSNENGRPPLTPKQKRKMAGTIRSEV

In the case of `CCOc1ccc(C(=O)C(C)OC(=O)c2nc(Cl)ccc2Cl)cc1` (stereo unspecified), the IC50 [1] is reported as > 20 µM (inactive).
In the case of `O=C(Cc1ccc(Br)cc1)Nc1ncc([N+](=O)[O-])s1`, the IC50 (HEK293 [2]) is reported as 6.55 µM (active), the IC50 (HEK293 [3]) is reported as > 20 µM (inactive) and the EC50 [4] is reported as 0.553 µM (active). The EC50 (HEK293 [5]) was 3.15 µM (active), the IC50 (HEK293 [6]) was 7.9 µM (inactive) and the EC50 [7] was > 20 µM (inactive). The EC50 [8] was > 60 µM (not active) and the IC50 (HEK293 [9]) was > 20 µM (inactive).
In the case of `O=C(CCN1C(=O)/C(=C/c2ccccc2Cl)SC1=S)NCCCN1CCOCC1`, the IC50 [1] is reported as > 20 µM (inactive).
For `Cc1ccc(-c2nnc(N3CCN(C(=O)COc4ccccc4)CC3)c3ccccc23)cc1`, the AC50 [10] was 34.9 µM (active), the AC50 [11] was 13.9 µM (active) and the AC50 [12] was 31.6 µM (active). For the same compound, the EC50 [13] was 4.54 µM (active).
For `O=C(/C=C/c1ccc(F)cc1)NC(=S)NNC(=O)c1cnccn1`, the EC50 [14] was 10.5 µM (active), the EC50 [15] was 11.7 µM (active) and the EC50 [16] was > 120 µM (not active). The EC50 [17] was 1.37 µM (active), the AC50 [18] was > 70 µM (inactive) and the AC50 [19] was 3.35 µM (active). For the same compound, the EC50 (Streptococcus) was 2.75 µM (active), the AC50 [20] was 1.39 µM (active) and the IC50 (Nonstructural protein 1) was 1.56 µM (active). The AC50 [21] was 2.01 µM (active) and the AC50 (INS1) was 1.21 µM (active).
With `COc1ccc(NC(=O)CN(c2ccccc2)S(=O)(=O)N(C)C)cc1OC` the IC50 (Estrogen receptor beta [22]) was > 109 µM (not active) and the IC50 (Estrogen receptor beta [23]) was 10.1 µM (active).
With `CC1(OC(=O)C2CCCC2)C(=O)C=C2C=C(c3ccsc3)N(CC3CC3)C=C2C1=O` (stereo unspecified) the IC50 [24] was 64.3 µM (inactive).
In the case of `Cc1ccc(-c2nc3cc(NS(=O)(=O)c4ccc(C)cc4)ccc3o2)cc1`, the EC50 [17] is reported as 5.82 µM (active), the EC50 (Streptococcus) is reported as 18.1 µM (active) and the EC50 (Streptokinase A) is reported as 5.86 µM (active). The “Absolute IC50 (XBP1)” value (X-box-binding protein 1) was 10 µM.
For `Cc1ccc(C(=O)NC(=C(Cl)Cl)S(=O)(=O)c2ccc(Cl)cc2)cc1`, the EC50 [25] was 7.82 µM (active), the IC50 (HEK293 [2]) was 3.42 µM (active) and the IC50 (HEK293 [3]) was > 20 µM (inactive). The EC50 (HEK293 [5]) was 2.2 µM (active), the IC50 (HEK293 [6]) was 5.03 µM (inactive) and the EC50 [7] was > 20 µM (inactive). For the same compound, the IC50 (HEK293 [9]) was > 20 µM (inactive).
With `Cc1ccc(-n2c(O)nc3c(C(N)=O)nc(-c4ccc(C)o4)nc32)cc1` the “Absolute IC50 (XBP1)” value (X-box-binding protein 1) was 10 µM.
With `N#C/C(=C\c1cccc(Oc2ccccc2)c1)C(=O)N1CCOCC1` the AC50 [19] was 8.82 µM (active).
